Like-named read-outs stand apart in the source and are kept apart here.
How the values were obtained:
[1] = target: T1, Acetylcholinesterase (AChE, E.C. 3.1.1.7, from human erythrocytes) (Homo sapiens, UniProt P22303); experiment: biochemical; assay type: biochemical; conditions: for Selectivity for AChE: IC50(BuChE)/IC50(AChE); for IC50: means ± SD of three independent experiments
T1 construct: Acetylcholinesterase (AChE, E.C. 3.1.1.7, from human erythrocytes); purchased Sigma-Aldrich (Steinheim, Germany); host or cells: human erythrocytes (natural source)
T1 sequence (P22303 32-617 isoform P22303-2 limits assumed): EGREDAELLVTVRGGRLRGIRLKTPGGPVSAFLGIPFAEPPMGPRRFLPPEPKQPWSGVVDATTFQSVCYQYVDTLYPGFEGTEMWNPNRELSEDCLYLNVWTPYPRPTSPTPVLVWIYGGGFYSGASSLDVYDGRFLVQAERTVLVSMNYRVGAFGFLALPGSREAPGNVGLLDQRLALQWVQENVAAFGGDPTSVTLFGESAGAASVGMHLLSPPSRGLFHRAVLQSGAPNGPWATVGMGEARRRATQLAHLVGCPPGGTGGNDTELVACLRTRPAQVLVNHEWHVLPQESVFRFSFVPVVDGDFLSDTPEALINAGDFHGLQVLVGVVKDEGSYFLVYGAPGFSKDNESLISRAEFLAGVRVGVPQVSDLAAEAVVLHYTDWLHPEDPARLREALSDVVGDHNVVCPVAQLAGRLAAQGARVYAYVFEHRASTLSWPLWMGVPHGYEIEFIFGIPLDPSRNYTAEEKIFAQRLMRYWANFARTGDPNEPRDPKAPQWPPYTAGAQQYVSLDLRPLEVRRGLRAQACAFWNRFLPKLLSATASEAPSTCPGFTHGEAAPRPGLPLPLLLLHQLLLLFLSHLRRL
Experimental: (§1) The details were described previously.
(§2) Their potency was determined using the modified Ellman’s method and expressed as the half of maximal inhibitory concentration, IC50 [34].

[2] = RP-18 HPLC chromatography lipophilicity estimation; assay type: physicochemical; conditions: for −S (slope): methanol/acetate buffer pH 4.0; for log kw (intercept): methanol/acetate buffer pH 4.0, extrapolated to pure water
Experimental: The Eurosil Bioselect C18 (5 μm, 300 × 4.6 mm) column was used as the stationary phase. The mobile phase consisted of different volume mixtures of methanol and 20 mM acetate buffer as the aqueous phase to give pH 4.0. The organic modifier concentration ranged from 0.30 to 0.75, depending on the structure of the compound at 0.05 (0.1) intervals. The flow rate was 0.5 cm^3·min^−1 at room temperature. Measurements were made at 292 nm. The retention time of an unretained solute (t0) was determined by the injection of a small amount of acetone dissolved in water. […] This is described by the Soczewiński–Wachtmeister dependence: log k = log kw + S (% organic modifier)(1) in which log kw is the retention factor of a solute with pure water as the mobile phase (intercept) and S is the regression curve (slope). The log k values were calculated as log k = log (tR − t0)/t0, where tR is the retention time of a solute and t0 is the retention time of an unretained solute.
To find the structure–activity relationships, some quantities of the compounds were estimated (Table 5). They included the lipophilicity parameter log kw obtained by RP-HPLC and calculated in silico log P, the topological polar surface area (tPSA), and the molar refractivity (MR) (Table 5). The log kw and S parameters obtained by the extrapolation technique are commonly used as lipophilicity descriptors.

[3] = In vitro antioxidant activity assay (DPPH radical scavenging); conditions: DPPH 100 μM in methanol, 37 °C, 30 min; means ± SD of three experiments; read-out: IC50(DPPH) radical scavenging effect
Experimental: Antioxidant activity of each compound and standards (rutin) was assessed based on the radical scavenging effect of stable DPPH free radical. An amount of 10 μL of each tested compound or standard series of different concentrations (from 0.0 to 100 µM) was added to 9 mL of methanol solution of 2,2-diphenyl-1-picrylhydrazyl (DPPH) (100 μM). After incubation at 37 °C for 30 min, decrease in the absorbance of each solution was measured at 520 nm. The absorbance of the blank sample containing the same amount of DMSO and DPPH solution was also prepared and measured. All experiments were conducted in triplicate. The scavenging potential was compared with a solvent control (0% radical scavenging) and the standard compound. Radical scavenging activity (%AA) was calculated by the following formula: (%AA) = [(A0 − A1)/A0] × 100%(3) in which (A0) is the absorbance of the blank sample and (A1) is the absorbance of the tested compound (t = 30 min).
Reactive oxygen species are a causal factor in the process of aging and the cumulative damage has been associated with AD [45]. In this study, the DPPH radical scavenging activity of the newly synthesized compounds was estimated using the Brand-Williams method.

[4] = target: T2, butyrylcholinesterase (BuChE, E.C. 3.1.1.8, from equine serum) (Equus caballus, UniProt P81908); experiment: biochemical
T2 construct: butyrylcholinesterase (BuChE, E.C. 3.1.1.8, from equine serum); purchased Sigma-Aldrich (Steinheim, Germany); host or cells: equine serum (natural source)
T2 sequence (P81908 whole entry): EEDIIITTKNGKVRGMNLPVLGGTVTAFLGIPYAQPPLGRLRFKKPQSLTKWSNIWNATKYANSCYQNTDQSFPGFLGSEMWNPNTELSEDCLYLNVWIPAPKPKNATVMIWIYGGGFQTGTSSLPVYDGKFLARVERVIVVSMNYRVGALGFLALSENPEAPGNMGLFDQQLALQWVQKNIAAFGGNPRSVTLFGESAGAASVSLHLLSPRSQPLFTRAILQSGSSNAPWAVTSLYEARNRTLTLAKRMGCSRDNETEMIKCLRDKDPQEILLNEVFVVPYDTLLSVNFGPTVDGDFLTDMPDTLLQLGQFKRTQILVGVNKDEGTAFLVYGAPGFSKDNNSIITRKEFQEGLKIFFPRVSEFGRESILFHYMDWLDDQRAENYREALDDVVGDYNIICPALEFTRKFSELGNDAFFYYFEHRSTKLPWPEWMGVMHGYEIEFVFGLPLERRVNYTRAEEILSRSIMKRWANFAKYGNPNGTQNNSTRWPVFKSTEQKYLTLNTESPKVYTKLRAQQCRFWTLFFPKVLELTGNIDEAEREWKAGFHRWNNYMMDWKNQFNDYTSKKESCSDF
Experimental: as §1, §2

[5] = target: T3, Amyloid β-peptide (1–42) (Aβ42) (Homo sapiens, UniProt P05067); experiment: biochemical; conditions: ThT fluorescence, 24 h at 37 °C; means ± SD of three experiments; read-out: IC50(Aβ(1–42)) self-induced aggregation
T3 construct: Amyloid β-peptide, (1–42) (Aβ42), was purchased from Aldrich; purchased Aldrich
T3 sequence (P05067 672-713 limits assumed): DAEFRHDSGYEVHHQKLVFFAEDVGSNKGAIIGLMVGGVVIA
Experimental: Amyloid β-peptide, (1–42) (Aβ42), was purchased from Aldrich. Aβ42 was diluted in the phosphate buffer (pH 8.0) to obtain a 125.8 µM solution. The compounds under study were first dissolved in a small amount of methanol, and then further diluted in the phosphate buffer to the final concentration of 5–160 μM. To study the Aβ42 aggregation inhibition, the fluorescence emission of thioflavin T (ThT) was followed with curcumin as the reference compound [35, 36]. At first, the Aβ42 (10 μL) samples and the tested compounds (10 μL) were diluted with the phosphate buffer (60 μL) and then they were incubated for 24 h at 37 °C without stirring. As for the control, a sample of the peptide was incubated without the inhibitor. The tests were carried out in black, flat-bottom, 96-well plates. Then 20 µL of 2.5 µM ThT in 50 mM glycine–NaOH (pH 8.5) was added and incubated for 5 min. Fluorescence was monitored with the excitation at 446 nm and the emission at 490 nm. A time scan of fluorescence was performed and the intensity values reached the plateau (300 s). […]. The reported values were obtained as the mean ± SD of triplicate of three independent experiments.
Nowadays, the amyloid hypothesis has become the dominating paradigm for understanding AD [44]. Aβ(1–42) is the most amyloidogenic Aβ fragment found in the AD plaques. […].

[6] = tested on: AChE; conditions: Figure 1; cited from earlier work
[7] = means ± SD of three experiments, read-out: BuChE IC50

Row | SMILES | Selectivity for AChE [1] | IC50 [1] | −S (slope) [2] | log kw (intercept) [2] | IC50 [3] | IC50 [4, 7] | Selectivity for AChE with respect to BuChE (in words) [1] | IC50 [5] | Activity against AChE (in words) [1] | IC50 [6] | IC50 [4]
1 | Oc1cc(O)c(-c2nc3cc(Cl)c(Cl)cc3[nH]2)cc1Cl [Compound 2, 4-(5,6-Dichloro-1H-benzimidazol-2-yl)-6-chlorobenzene-1,3-diol] | 41.9 | 541 ± 36 nM | 5.770 | 5.460 | 213 ± 80 nM | 22690 ± 78 nM |  |  |  |  | 
2 | Cc1c(O)ccc(-c2nc3ccc(C(F)(F)F)cc3[nH]2)c1O [Compound 3, 4-[6-(Trifluoromethyl)-1H-benzimidazol-2-yl]-2-methylbenzene-1,3-diol] | 143.1 | 98 ± 5 nM | 6.299 | 5.720 |  | 14020 ± 111 nM |  |  |  |  | 
3 | CCc1cc(-c2nc3cc(C(F)(F)F)cc(Cl)c3[nH]2)c(O)cc1O [Compound 4, 4-(7-Chloro-5-(trifluoromethyl)-1H-benzimidazol-2-yl)-6-ethylbenzene-1,3-diol] | 390.0 | 118 ± 9 nM | 4.635 | 4.237 |  | 46030 ± 104 nM | highly selective |  |  |  | 
4 | COc1ccc2nc(-c3cc(Cl)c(O)cc3O)[nH]c2c1 [Compound 6, 4-(6-Methoxy-1H-benzimidazol-2-yl)-6-chlorobenzene-1,3-diol] | 203.4 | 92 ± 2 nM | 5.390 | 4.808 | 362 ± 10 nM | 18710 ± 173 nM | highly selective | 27000 ± 2290 nM |  |  | 
5 | COc1ccc2nc(-c3ccc(O)c(O)c3O)[nH]c2c1 [Compound 7, 4-(6-Methoxy-1H-benzimidazol-2-yl)benzene-1,2,3-triol] |  | > 500000 nM | 3.870 | 3.589 |  | > 500000 nM |  |  | inactive |  | 
6 | CCOC(=O)c1ccc2[nH]c(-c3ccc(O)c(C)c3O)nc2c1 [Compound 8, Ethyl 2-(2,4-dihydroxy-3-methylphenyl)-1H-benzimidazole-5-carboxylate] | 137.8 | 184 ± 22 nM | 4.097 | 2.566 | 125 ± 60 nM | 25350 ± 232 nM |  |  |  |  | 
7 | CCOC(=O)c1ccc2[nH]c(-c3cc(CC)c(O)cc3O)nc2c1 [Compound 9, Ethyl 2-(5-ethyl-2,4-dihydroxyphenyl)-1H-benzimidazole-5-carboxylate] | 45.6 | 962 ± 23 nM | 4.160 | 3.067 |  | 43860 ± 381 nM |  |  |  |  | 
8 | CCOC(=O)c1ccc2[nH]c(-c3c(O)cc(O)cc3O)nc2c1 [Compound 10, Ethyl 2-(2,4,6-trihydroxyphenyl)-1H-benzimidazole-5-carboxylate] |  | > 500000 nM | 3.237 | 2.088 |  | > 500000 nM |  |  | inactive |  | 
9 | Cc1c(O)ccc(-c2nc3ccc(C#N)cc3[nH]2)c1O [Compound 11, 2-(2,4-Dihydroxy-3-methylphenyl)-1H-benzimidazole-6-carbonitrile] |  | > 500000 nM | 3.867 | 3.590 |  | > 500000 nM |  |  |  |  | 
10 | CCc1cc(-c2nc3ccc(C#N)cc3[nH]2)c(O)cc1O [Compound 12, 2-(5-Ethyl-2,4-dihydroxyphenyl)-1H-benzimidazole-6-carbonitrile] |  | > 500000 nM | 4.854 | 3.360 | 209 ± 20 nM | > 500000 nM |  |  |  |  | 
11 | O=[N+]([O-])c1ccc2nc(-c3ccc(O)cc3O)[nH]c2c1 [Compound 13, 4-(6-Nitro-1H-benzimidazol-2-yl)benzene-1,3-diol] | 71.7 | 1490 ± 118 nM | 4.655 | 2.475 |  | 106600 ± 201 nM |  |  |  |  | 
12 | Cc1c(O)ccc(-c2nc3ccc([N+](=O)[O-])cc3[nH]2)c1O [Compound 14, 2-Methyl-4-(6-nitro-1H-benzimidazol-2-yl)benzene-1,3-diol] | 88.1 | 1000 ± 196 nM | 4.596 | 2.674 |  | 88360 ± 155 nM |  |  |  |  | 
13 | Oc1ccc(-c2nc3ccccc3[nH]2)c(O)c1 [bib-1,3-diol, 4-(1H-benzimidazol-2-yl)benzene-1,3-diol, reference compound] | 109.2 | 284 ± 14 nM | 2.979 | 1.732 |  | 31020 ± 133 nM |  |  |  |  | 
14 | Clc1ccc2[nH]c(-c3ccc(OCCN4CCCCC4)cc3)nc2c1 [compound a] |  |  |  |  |  |  |  |  |  | 130 nM | 
15 | CCN(CC)Cc1cc(-c2nc3cc([N+](=O)[O-])ccc3[nH]2)ccc1O [compound b] |  |  |  |  |  |  |  |  |  | 930 nM | 
16 | CN1c2c(nn(-c3ccc(-c4nc5ccccc5[nH]4)cc3)c2-c2ccccc2)-c2ccccc2S1(=O)=O [compound f] |  |  |  |  |  |  |  |  |  | 11 nM | 
17 | O=C1c2ccccc2C(=O)N1CCCn1c[n+](Cc2cccc3ccccc23)c2ccccc21 [d] |  |  |  |  |  |  |  |  |  | 56 nM | 
18 | C=Cc1ccc(C[n+]2cn(C)c3ccccc32)cc1 [e] |  |  |  |  |  |  |  |  |  | 45 nM | 
19 | CN(C)C(=O)Oc1cccc([N+](C)(C)C)c1 [neostigmine, reference compound] |  |  |  |  |  |  |  |  |  |  | 68 ± 5 nM
20 | C[C@@H]1O[C@@H](OC[C@H]2O[C@@H](Oc3c(-c4ccc(O)c(O)c4)oc4cc(O)cc(O)c4c3=O)[C@H](O)[C@@H](O)[C@@H]2O)[C@H](O)[C@H](O)[C@H]1O [rutin, reference compound] |  |  |  |  | 87 ± 40 nM |  |  |  |  |  | 
